Measured values reported in patent US11273153B2, “MAPK inhibitors” (EverBrilliant Pharma Pty Ltd, priority 2014, dated 2022).
Values joined by “and” are separate entries in the source; they are usually repeats but may differ in a detail not shown here. Equal entries are not always repeated. Where two headings read alike, the source gives them in different places.

How the values were obtained:
[1] = Plasma concentrations in the acute toxicity study (HPLC-MS); assay type: in vivo, rat; details: for Concentration in rat plasma: 150 mg/kg twice daily oral gavage, individual rats 1-4, rat 2 atypical and excluded
Method: (§1) An acute toxicity study of compound 4.5 was carried out. In this toxicity study, four male Sprague-Dawley (SD) rats received 150 mg/kg of compound 4.5 twice daily by oral gavage over a period of two weeks. The control group consisting of four male SD rats received 1% carboxymethylcellulose (CMC) in water. Blood samples were collected for analysis at 1 and 12 hours after the first dose and at the 7 and 14 day troughs. The rats were then sacrificed and organs collected for analysis. Individual body weights were measured at day −1, 2, 4, 7, 10 and 14. FIG. 7 indicates the blood results from an acute toxicity study for 4.5.
(§2) The full blood, haemoglobin, haemocrit, red cell count, mean corpuscular haemoglobin, mean corpuscular volume, red cell distribution width, mean corpuscular haemoglobin concentration and liver function were all assessed. […] The CDCO analysed blood samples using HPLC-MS to determine the concentrations of compound 4.5 in rat plasma at different time points (Table 3).

[2] = test system: neonatal rat cardiac fibroblasts (NCF); assay: NCF cell viability (MTT assay); assay type: cell-based
Method: Measurement of NCF cell viability was carried out using a published method with the 3-(4,5-dimethylthiazol-2-yl)-2,5-diphenyltetraxolium bromide (MTT) assay.

[3] = In vitro metabolic stability, human liver microsomes; assay type: in vitro ADME; details: for half-life: NADPH-dependent, read-out: Apparent Degradation half-life; for microsomal CLint: read-out: In vitro CLint (μL/min/mg protein)
Method: (§3) The metabolic stability of compounds 4.1 and 4.5 was assayed in an in vitro assay which employed liver microsomes. Liver microsomes are valuable models for the determination of hepatic clearance because they contain a number of drug metabolising enzymes, such as the CYP450 enzymes. An in vitro metabolic stability study was conducted using human, rat and mouse liver microsomes as a prediction of the in vivo metabolic clearance. […] From the results, the rates of apparent compound degradation in human, rat and mouse liver microsomes were in agreement with the moderate to high microsome-predicted extraction ratios (EH) for both compounds 4.1 and 4.5.

[4] = In vitro metabolic stability, mouse liver microsomes; assay type: in vitro ADME; details: for half-life: NADPH-dependent, read-out: Apparent Degradation half-life; for microsomal CLint: read-out: In vitro CLint (μL/min/mg protein)
Method: as §3

[5] = Acute toxicity study in rats; assay type: in vivo, male Sprague-Dawley (SD) rats; details: two weeks
Method: as §1, §2

[6] = In vitro metabolic stability, rat liver microsomes; assay type: in vitro ADME; details: for half-life: NADPH-dependent, read-out: Apparent Degradation half-life; for microsomal CLint: read-out: In vitro CLint (μL/min/mg protein)
Method: as §3

[7] = biological target: inactive non-phosphorylated p38α MAPK (Homo sapiens (Human), UniProt Q16539); assay: Fluorescence polarisation (FP) binding assay, inactive enzyme
Sequence of inactive non-phosphorylated p38α MAPK (Q16539 whole entry): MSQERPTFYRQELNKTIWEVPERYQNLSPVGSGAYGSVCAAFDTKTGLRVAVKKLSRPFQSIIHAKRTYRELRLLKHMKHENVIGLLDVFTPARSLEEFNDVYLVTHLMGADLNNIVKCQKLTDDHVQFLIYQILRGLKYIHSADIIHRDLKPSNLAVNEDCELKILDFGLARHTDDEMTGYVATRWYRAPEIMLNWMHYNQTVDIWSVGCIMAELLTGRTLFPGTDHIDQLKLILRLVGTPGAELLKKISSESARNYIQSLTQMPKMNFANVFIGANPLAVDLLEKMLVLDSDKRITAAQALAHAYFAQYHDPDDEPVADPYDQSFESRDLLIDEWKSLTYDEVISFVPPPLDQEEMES
Method: (§4) A number of compounds were also assessed for the inhibition of p38α MAPK activity (www.kinase-screen.mrc.ac.uk) in which a radioactive (^33P-labelled ATP) filter binding assay was used to directly measure phosphate incorporation. Table 1 summarises the binding affinities of the synthesised compounds to both forms of the enzyme as well as the inhibitory activities against p38α MAPK. By way of enabling a comparison with a non-thiophene compound the biological testing was also carried out for known inhibitor RWJ67657, shown in table 1.
(§5) FP signals were measured with a PHERAstar microplate reader (BMG Labtech) using black, low-binding half-area 96 well plates (Corning). Each binding data point was carried out in duplicate or triplicate. Data were recorded in millipolarisation (mP) units and measured at an excitation wavelength of 485 nm and an emission wavelength of 520 nm. Tris(hydroxymethyl)aminomethane (Tris) assay buffer was used in all binding experiments and consisted of 10 mM Tris, […] potassium chloride, and 3.5 mM 3-((3-cholamidopropyl)dimethylammonium)-1-propanesulfonate (Chaps) at pH 8.0.
(§6) Test compounds were prepared from dimethylsulfoxide stocks (10 mM). […] Plates were incubated at room temperature for 1 hour and FP signals were recorded. For binding experiments to active p38α MAPK, the FP signals were recorded after 2 hours incubation at room temperature. Data is represented as mean±SEM from two to three independent experiments.

[8] = biological target: active phosphorylated p38α MAPK (Homo sapiens (Human), UniProt Q16539); assay: Fluorescence polarisation (FP) binding assay, active enzyme
Sequence of active phosphorylated p38α MAPK (Q16539 whole entry): as above
Method: as §4, §5, §6

[9] = biological target: p38α MAPK activation (phosphorylation) by MKK6 (Homo sapiens (Human), UniProt Q16539); assay: In vitro activation assay (phosphorylation of p38α MAPK by MKK6, western blot); assay type: biochemical
Sequence of p38α MAPK activation (phosphorylation) by MKK6 (Q16539 whole entry): as above
Method: The assay was analysed by immunoblotting using antibodies against pan p38 MAPK and activated (phosphorylated) p38α MAPK. […] The reaction is initiated by the addition of ATP and MKK6 and proceeds for 15 minutes.
The assay was analysed by immunoblotting using antibodies against pan p38 MAPK and phosphorylated p38α MAPK.
The reaction was started by the addition of active MKK6 (5 ng) and ATP (100 μM). After 30 minutes incubation at room temperature, the reaction was stopped with ethylenediaminetetraacetic acid (EDTA) (10 mM). Phosphorylation of p38 MAPK was analysed by Western blotting.
Reaction samples were mixed 1:1 with Laemmli loading buffer, including β-mercaptoethanol (Biorad). Samples were heated at 95° C. for 5 minutes and 80 ng of protein was resolved using sodium dodecyl sulfate polyacrylamide gel electrophoresis (SDS-PAGE) gels (Biorad) at 200 V for 90 minutes. Proteins were transferred (100 V, 1 hour) to a polyvinylidene difluoride (PVDF) membrane (Merck). Membranes were incubated in blocking buffer (5% skim milk in Tris-buffered saline with Tween 20 (TBST), 1 hour, room temperature) and washed in TBST. Membranes were incubated with primary antibodies against total and phosphorylated p38 MAPK (1:1,000, Cell Signaling Technology) overnight at 4° C. Membranes were washed 4×15 minutes in TBST and probed with a secondary anti-mouse antibody at 1:2,000 dilution for 1 hour at room temperature, followed by washing in TBST (4×15 minutes). Signal detection was done with Western Lightning plus-ECL enhanced chemiluminescent substrate (Perkin Elmer) with the ChemiDoc Imaging System (BioRad).

p38α MAPK = p38α MAPK (Homo sapiens (Human), UniProt Q16539); assay: Radioactive (33P-labelled ATP) filter binding assay of p38α MAPK activity; assay type: biochemical
Sequence of p38α MAPK (Q16539 whole entry): as above
Method: as §4

[10] = test system: neonatal rat cardiac fibroblasts (NCF); assay: Neonatal rat cardiac fibroblast collagen synthesis (3H-proline incorporation); assay type: cell-based; details: AngII 100 nM stimulus
Method: The effect of the compounds on neonatal rat cardiac fibroblasts (NCF) collagen synthesis was determined by measuring ^3H-proline incorporation following a published protocol using AngII (100 nM) as the stimulus. ^3H-proline incorporation was determined in the same way as the cardiac myocyte hypertrophy assay described above.

[11] = test system: IL-6 gene expression in monocytic (THP-1) cells; assay: LPS-induced IL-6 gene expression in THP-1 cells; assay type: cell-based; details: LPS-stimulated THP-1 cells
Method: Certain of the compounds were tested in a cellular assay for suppression of TNF-α and IL-6 gene expression in monocytic (THP-1) cells and the assay results are depicted in FIGS. 2 and 3. A published method was used whereby treating THP-1 cells with LPS induces TNF-α and IL-6 gene expression.

[12] = test system: neonatal rat cardiac myocytes (NCM); assay: Neonatal rat cardiac myocyte hypertrophy (3H-leucine incorporation); assay type: cell-based
Method: Neonatal rat cardiac myocyte (NCM) hypertrophy was determined by ^3H-leucine incorporation following a published protocol on the above synthesised compounds using either Angiotensin II (AngII, 100 nM) or TNF-α (10 ng/mL) as the stimulus. ^3H levels were counted in scintillation fluid on a beta counter to determine levels of ^3H-leucine incorporation.

[13] = 150 mg/kg twice daily oral gavage
[14] = Table 5, read-out: Ki ± SEM (μM) to inactive p38α MAPK
[15] = Table 6, read-out: Ki ± SEM (μM) to inactive p38α
[16] = Table 5, read-out: Ki ± SEM (μM) to active p38α MAPK
[17] = Table 6, read-out: Ki ± SEM (μM) to active p38α
[18] = read-out: Ki to active p38α MAPK

Row | SMILES | Microsome predicted EH [3] | half-life [3] [min] | microsomal CLint [3] [µL/min/mg] | Microsome predicted EH [4] | half-life [4] [min] | microsomal CLint [4] [µL/min/mg] | Microsome predicted EH [6] | half-life [6] [min] | microsomal CLint [6] [µL/min/mg] | Ki [7, 14] [µM] | Ki [7, 15] [µM] | Ki [8, 16] [µM] | Ki [8, 17] [µM] | Ki [8, 18] [µM] | inhibition of p38α MAPK activation (phosphorylation) ([9]; 10 μM concentration) | also measured
1 | OCCC#Cc1cc(-c2ccncc2)c(-c2ccc(F)cc2)s1 [Compound 4.5, 4-(5-(4-Fluorophenyl)-4-(pyridin-4-yl)thiophen-2-yl)but-3-yn-1-ol] | 0.58 | 71 | 24 | 0.89 | 9 | 184 | 0.78 | 16 | 110 | – | – | – | – | – | – | Concentration in rat plasma ([1]; 1 hour post first dose): 1.357 µM and 0.0009 µM and 0.325 µM and 0.327 µM; Concentration in rat plasma ([1]; 12 hours post first dose): 0.008 µM and 0.007 µM and 0.147 µM and 0.005 µM; Concentration in rat plasma ([1]; 7 day trough): 0.005 µM and 0.424 µM and 0.058 µM and 0.006 µM; Concentration in rat plasma ([1]; 14 day trough): 0.007 µM and 0.105 µM and 0.032 µM and 0.014 µM; peak plasma levels relative to the enzyme IC50 value ([1]; intake of 300 mg/kg/day, rat): two to nine times higher; NCF cell viability ([2]; 25 μM concentration): no affect on NCF cell viability; average body weight compared to vehicle group [5, 13]: no difference in the average body weight compared to the vehicle group; full blood, haemoglobin, haemocrit, red cell parameters and liver function, treated vs vehicle [5, 13]: No differences were observed between treated and vehicle groups; liver function [5, 13]: no changes to liverfunction; mass of the spleen [5, 13]: loss in the mass of the spleen; weights of the kidneys, heart and liver [5, 13]: the same as the vehicle group; tolerability in rats ([5]; 300 mg/kg/day): well tolerated
2 | Nc1nc(N)c(F)c(-c2cc(-c3ccncc3)c(-c3ccc(F)cc3)s2)c1F [Compound 5.21, 3,5-Difluoro-4-(5-(4-fluorophenyl)-4-(pyridin-4-yl)thiophen-2-yl)pyridine-2,6-diamine] | – | – | – | – | – | – | – | – | – | 0.47 ± 0.01 | 0.47 ± 0.01 | 0.16 ± 0.02 | 0.16 ± 0.02 | 0.16 | inhibition of p38α MAPK activation | Ki ([7]; read-out: Ki to inactive non-phosphorylated p38α MAPK): 0.47 µM; inhibition of p38α MAPK activation (phosphorylation) ([9]; 1 μM concentration): significant inhibition
3 | OCCCCc1cc(-c2ccncc2)c(-c2ccc(F)cc2)s1 [Compound 5.9, 4-(5-(4-Fluorophenyl)-4-(pyridin-4-yl)thiophen-2-yl)butan-1-ol] | – | – | – | – | – | – | – | – | – | 0.98 ± 0.02 | 0.98 ± 0.02 | 0.25 ± 0.04 | 0.25 ± 0.04 | 0.25 | inhibition of p38α MAPK activation | –
4 | O=C(CCCO)c1cc(-c2ccncc2)c(-c2ccc(F)cc2)s1 [Compound 5.10, 1-(5-(4-Fluorophenyl)-4-(pyridin-4-yl)thiophen-2-yl)-4-hydroxybutan-1-one] | – | – | – | – | – | – | – | – | – | 2.7 ± 0.3 | 2.7 ± 0.3 | 0.67 ± 0.03 | 0.67 ± 0.03 | 0.67 | inhibition of p38α MAPK activation | –
5 | OCCC#Cc1sc(-c2ccc(F)cc2)c(-c2ccncc2)c1CCCc1ccccc1 [Compound 4.1, 4-(5-(4-Fluorophenyl)-3-(3-phenylpropyl)-4-(pyridin-4-yl)thiophen-2-yl)but-3-yn-1-ol] | 0.92 | 8 | 219 | ~0.94 | ~5 | ~342 | ~0.91 | ~5 | ~319 | – | 2.3 ± 0.2 | – | 0.6 ± 0.1 | – | – | IC50 (p38α MAPK; Table 1, average of two experiments, read-out: IC50 (μM, mean)): 0.18 µM; IC50 (p38α MAPK; Table 6, read-out: IC50 (mean)): 0.18 µM; inhibition of AngII-stimulated NCF collagen synthesis [10]: did not suppress AngII-induced NCF collagen synthesis at 1 μM concentration; NCF cell viability ([2]; 10 μM concentration): no affect on NCF cell viability; Ki ([7]; Table 1, read-out: Ki (μM, mean ± SEM) inactive p38α): 2.3 ± 0.2 µM; Ki ([8]; Table 1, read-out: Ki (μM, mean ± SEM) active p38α): 0.6 ± 0.1 µM; inhibition of LPS-induced IL-6 gene expression [11]: strong inhibition; suppression of AngII-induced NCM hypertrophy ([12]; AngII 100 nM stimulus): suppression of NCM hypertrophy; suppression of TNF-α-induced NCM hypertrophy ([12]; TNF-α 10 ng/mL stimulus): suppression of NCM hypertrophy
